Experimental data as given in article PMC4686731, “Screening of Pharmacologically Active Small Molecule Compounds Identifies Antifungal Agents Against Candida Biofilms” (Frontiers in Microbiology, 2015).
Values after ≈ are worked out from the molar mass of the structure shown. Counter-ions that a name gives are not always drawn. Like-named read-outs stand apart in the source and are kept apart here.

How the values were obtained:
[1] = system: C. albicans strain SC5314; test: High-throughput screening (HTS) with antifungal susceptibility test, CellTiter-Glo ATP read-out; assay type: cell-based, Candida albicans; conditions: for inhibition at 10 µM: Candida albicans, SC5314, 24 h
Description: (§1) The in vitro susceptibility of well-characterized wild-type C. albicans strain SC5314, which was provided by Prof. N.A.R. Gow (University of Aberdeen, Aberdeen, UK) was tested against 1280 compounds from the Library of Pharmacologically Active Compounds (LOPAC^1280TM, Sigma–Aldrich, USA). The screen was performed with C. albicans SC5314, and hits were further confirmed with the type strains C. dubliniensis MYA 577, C. glabrata ATCC 2001, C. kusei ATCC 6258, C. palapsilosis ATCC 22019, and C. tropicalis ATCC13803.
High-Throughput Screening was conducted using ASTs, according to the standard Clinical and Laboratory Standard Institute (CLSI) method ([Watamoto et al., 2009]). Inocula from 24-h yeast cultures on Sabouraud’s dextrose agar (SDA) (Gibco, UK) were adjusted to a turbidity equivalent to a 0.5 McFarland standard at 520 nm using a spectrophotometer. The suspension was diluted further with RPMI 1640 medium (Gibco, UK) to yield an inoculum concentration of 0.5 × 10^3 to 2.5 × 10^3 cells/mL. C. albicans was incubated with small-molecule compounds (10 μM) from LOPAC^1280TM, which total volume was 150 μL, in 96-well plates at 37°C for 24 h to evaluate the antifungal effects. After incubation, the viability of the fungal cells was determined using the CellTiter-Glo luminescent cell viability kit (Promega, USA). The CellTiter-Glo reagent (150 μL) was added to the medium and incubated for 15 min at room temperature with shaking at 900 rpm. The luminescent signals were detected using a luminometer (GloMax Discover System, Promega, USA). The resulting signal intensity corresponds to ATP amounts and thus to the number of viable microbial cells upon drug exposure ([Stylianou et al., 2014]). In all 96-well plates, 100 and 0% growth controls were included as microbes plus dimethyl sulfoxide (0.1%) and microbes plus amphotericin B (100 μM), respectively. All assays were performed at least as two biological replicates in triplicate. The ATP level of C. albicans cells, which corresponded to the cell metabolic activity and viability, was calculated for each compound using the following equation (Figure 1A).
Percentageinhibition=100 × 1-{(experimental-positivecontrolaverage)/(negativecontrolaverage-positivecontrolaverage)}
Wells were scored as hits if the percentage inhibition was >50%. Hit compounds were evaluated further to assess their antifungal effects.

C. albicans SC5314 [2] = test: AST broth microdilution, high cell density planktonic mode; assay type: cell-based, Candida albicans; conditions: 50% MIC, planktonic mode, 1 × 10^7 cells/mL, 24 h, read-out: Minimum inhibitory concentration (MIC)
Description: as §1
(§2) To investigate the antifungal effects of the hit compounds, ASTs were conducted using broth microdilution assays with high cell densities of the planktonic mode, adhesion phase and biofilm mode against Candida strains (C. albicans, C. dubliniensis, C. glabrata, C. kusei, C. palapsilosis, and C. tropicalis). First, high density cell (1 × 10^7 cells/mL) suspensions were added to the RPMI medium containing each hit compound (10–1000 μM) in 96-well plates and incubated at 37°C for 24 h. Next, the 50% minimum inhibitory concentrations (MICs) of high-density Candida planktonic cultures were determined using the CellTiter-Glo luminescent cell viability kit, as described above. The antifungal effects of the hit compounds were also evaluated in the adhesion phase and the biofilm mode, in the same manner as the planktonic mode. Candida biofilms were produced as described previously ([Jin et al., 2004]). In brief, Candida cells were grown on SDA at 37°C for 18 h. A loopful of the yeast culture was then inoculated into yeast nitrogen base (YNB) (Difco, USA) medium supplemented with 50 mM glucose. After overnight broth culture in a rotary shaker at 75 rpm, the cells were washed twice with 20 mL of PBS (pH 7.2, 0.1 M). The yeast cells were re-suspended in YNB supplemented with 100 mM glucose and adjusted to an optical density of 0.38 (1 × 10^7 cells/mL) at 520 nm. This standardized cell suspension was used immediately to form biofilms in the wells of 96-well polystyrene culture plates (Iwaki, Tokyo, Japan). First, the cells were incubated for 90 min at 37°C in a shaker at 75 rpm to allow yeast adherence to the well surface (adhesion phase), before the medium was aspirated and each well was washed once with PBS to remove non-adherent cells. YNB containing 100 mM glucose was then pipetted into each well and the plate was incubated at 37°C in a shaker at 75 rpm for 24 h. Non-adherent cells were removed by pipetting and the biofilms were washed twice with PBS. Following this biofilm growth phase, microscopic examination of the cultures was performed to exclude contamination. These ASTs were repeated on three different occasions.

[3] = system: C. albicans SC5314 biofilm; test: AST, biofilm mode; assay type: cell-based; conditions: Candida albicans, SC5314; biofilm mode (24 h biofilm); read-out: Minimum inhibitory concentration (MIC)
Description: as §1, §2

C. albicans SC5314 [4] = test: AST, adhesion phase; assay type: cell-based; conditions: Candida albicans, SC5314, 1.5 h; adhesion phase (90 min adherence); read-out: Minimum inhibitory concentration (MIC)
Description: as §1, §2

[5] = compound 10 μM, 0.5 × 10^3 to 2.5 × 10^3 cells/mL, 37°C, 24 h

Cc1cc(N)c2ccccc2[n+]1CCCCCCCCCC[n+]1c(C)cc(N)c2ccccc21.O.[Cl-].[Cl-] [Dequalinium chloride hydrate]
percent inhibition of the metabolic activity (ATP level) of C. albicans [1, 5]: 71.5%

CCCCCCCCCCCCCCCC(=O)OC(CC(=O)O)C[N+](C)(C)C.[Cl-] (racemic) [Palmitoyl-DL-carnitine chloride]
percent inhibition of the metabolic activity (ATP level) of C. albicans [1, 5]: 76.0%

COc1ccc2c(c[n+](C)c3c4cc5c(cc4ccc23)OCO5)c1OC [Chelerythrine chloride]
inhibition at 10 µM ([1]; compound 10 μM, 0.5 × 10^3 to 2.5 × 10^3 cells/mL, 37°C, 24 h, read-out: percent inhibition of the metabolic activity (ATP level) of C. albicans): 82.4%

CN[C@@H]1C[C@@H](c2ccc(Cl)c(Cl)c2)c2ccccc21 [Indatraline hydrochloride]
inhibition at 10 µM ([1]; read-out: percent inhibition of the metabolic activity (ATP level) of C. albicans, compound 10 μM, 0.5 × 10^3 to 2.5 × 10^3 cells/mL, 37°C, 24 h): 85.2%

C[C@@H]1[C@H](O)[C@@H](C)/C=C/C=C/C=C/C=C/C=C/C=C/C=C/[C@H](O[C@@H]2O[C@H](C)[C@@H](O)[C@H](N)[C@@H]2O)C[C@@H]2O[C@](O)(C[C@@H](O)C[C@@H](O)[C@H](O)CC[C@@H](O)C[C@@H](O)CC(=O)O[C@H]1C)C[C@H](O)[C@H]2C(=O)O [AMB, amphotericin B]
MIC (C. albicans SC5314 [2]): 3.9 µM (≈ 3.6 µg/mL)
MIC (C. albicans SC5314 [2]; Candida albicans, SC5314, 24 h): < 3.9 µM
MIC [3]: 62.5 µM (≈ 57.8 µg/mL)
MIC (C. albicans SC5314 [4]): 15.6 µM (≈ 14.4 µg/mL)
